Test results reported in BindingDB's records for doi:10.1073/pnas.89.8.3630 (Synaptic Pharmaceutical, 1992).

How the values were obtained:
[1] = molecular target: 5-hydroxytryptamine receptor 1B (Homo sapiens, UniProt P28222)
[2] = molecular target: 5-hydroxytryptamine receptor 1D (Homo sapiens, UniProt P28221)
5-hydroxytryptamine receptor 1D, sequence (P28221 whole entry): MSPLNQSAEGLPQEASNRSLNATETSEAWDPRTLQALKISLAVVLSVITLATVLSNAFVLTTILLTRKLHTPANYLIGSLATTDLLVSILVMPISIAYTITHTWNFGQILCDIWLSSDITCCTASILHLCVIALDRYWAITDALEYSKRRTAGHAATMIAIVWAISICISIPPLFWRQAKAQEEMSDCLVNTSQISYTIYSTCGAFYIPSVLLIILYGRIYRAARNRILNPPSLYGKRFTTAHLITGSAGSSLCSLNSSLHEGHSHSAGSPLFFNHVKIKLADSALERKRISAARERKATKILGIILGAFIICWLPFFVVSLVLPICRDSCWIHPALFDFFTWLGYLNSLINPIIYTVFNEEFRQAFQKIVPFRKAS

5-hydroxytryptamine receptor 1B, sequence (P28222 whole entry): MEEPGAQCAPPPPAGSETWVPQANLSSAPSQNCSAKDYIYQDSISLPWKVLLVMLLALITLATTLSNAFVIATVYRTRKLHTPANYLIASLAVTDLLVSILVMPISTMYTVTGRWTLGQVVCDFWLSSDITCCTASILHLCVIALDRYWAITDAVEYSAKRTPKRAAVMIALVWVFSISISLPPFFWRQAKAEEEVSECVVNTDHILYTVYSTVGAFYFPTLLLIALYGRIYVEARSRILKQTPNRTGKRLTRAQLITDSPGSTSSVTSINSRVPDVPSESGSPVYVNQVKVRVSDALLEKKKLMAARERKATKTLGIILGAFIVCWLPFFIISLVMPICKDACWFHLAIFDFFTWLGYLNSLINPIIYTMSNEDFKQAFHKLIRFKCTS

Structure (SMILES) | Ki [1] [µM] | Ki [2] [µM]
Clc1cccc(N2CCNCC2)c1 [mCPP] | 0.216 | 0.361
CCCN(CCC)CCc1c[nH]c2ccc(C(N)=O)cc12 [NN-DIPROP-5-CT] | 0.013 | 0.042
O=C(CCCN1CCC2(CC1)C(=O)NCN2c1ccccc1)c1ccc(F)cc1 [8-[4-(4-fluorophenyl)-4-oxidanylidene-butyl]-1-phenyl-1,3,8-triazaspiro[4.5]decan-4-one] | 0.995 | > 10
CC(C)NCC(O)COc1cccc2[nH]ccc12 (centres undefined) [LB-46] | 4.1 | 4.9
c1ccc2nc(N3CCNCC3)ccc2c1 [2-Piperazin-1-yl-quinoline (Quipazine)] | 1 | 1
Cc1[nH]c2ccc(O)cc2c1CCN | 0.915 | 0.86
c1ccc2c(N3CCNCC3)cccc2c1 |  | 0.012
CN1C[C@H](CO)C=C2c3cccc4[nH]cc(c34)C[C@H]21 | 0.00063 | 0.00119
COc1cc(N)c(Cl)cc1C(=O)NC1CN2CCC1CC2 (centres undefined) [ZACOPRIDE,R] | > 10 | > 10
CC[C@@H](CO)NC(=O)[C@@H]1C=C2c3cccc4c3c(cn4C)C[C@H]2N(C)C1 | 0.0036 | 0.025
